Laboratory results as given in patent publication US11788112B2, “L-2-hydroxyglutarate and stress induced metabolism” (Memorial Sloan-Kettering Cancer Center, priority 2014, dated 2023).

Columns and labels:
purified human KDM4C = target: T1, purified human KDM4C (Homo sapiens, UniProt Q9H3R0); assay: In vitro histone demethylase assay (H3K9me3 by Western blot); type: biochemical; details: bulk histones, α-KG 1 mM, 37° C. for 4 hr, various concentrations
T1 construct: GST; purchased BPS Bioscience
T1 sequence (Q9H3R0 1-1056): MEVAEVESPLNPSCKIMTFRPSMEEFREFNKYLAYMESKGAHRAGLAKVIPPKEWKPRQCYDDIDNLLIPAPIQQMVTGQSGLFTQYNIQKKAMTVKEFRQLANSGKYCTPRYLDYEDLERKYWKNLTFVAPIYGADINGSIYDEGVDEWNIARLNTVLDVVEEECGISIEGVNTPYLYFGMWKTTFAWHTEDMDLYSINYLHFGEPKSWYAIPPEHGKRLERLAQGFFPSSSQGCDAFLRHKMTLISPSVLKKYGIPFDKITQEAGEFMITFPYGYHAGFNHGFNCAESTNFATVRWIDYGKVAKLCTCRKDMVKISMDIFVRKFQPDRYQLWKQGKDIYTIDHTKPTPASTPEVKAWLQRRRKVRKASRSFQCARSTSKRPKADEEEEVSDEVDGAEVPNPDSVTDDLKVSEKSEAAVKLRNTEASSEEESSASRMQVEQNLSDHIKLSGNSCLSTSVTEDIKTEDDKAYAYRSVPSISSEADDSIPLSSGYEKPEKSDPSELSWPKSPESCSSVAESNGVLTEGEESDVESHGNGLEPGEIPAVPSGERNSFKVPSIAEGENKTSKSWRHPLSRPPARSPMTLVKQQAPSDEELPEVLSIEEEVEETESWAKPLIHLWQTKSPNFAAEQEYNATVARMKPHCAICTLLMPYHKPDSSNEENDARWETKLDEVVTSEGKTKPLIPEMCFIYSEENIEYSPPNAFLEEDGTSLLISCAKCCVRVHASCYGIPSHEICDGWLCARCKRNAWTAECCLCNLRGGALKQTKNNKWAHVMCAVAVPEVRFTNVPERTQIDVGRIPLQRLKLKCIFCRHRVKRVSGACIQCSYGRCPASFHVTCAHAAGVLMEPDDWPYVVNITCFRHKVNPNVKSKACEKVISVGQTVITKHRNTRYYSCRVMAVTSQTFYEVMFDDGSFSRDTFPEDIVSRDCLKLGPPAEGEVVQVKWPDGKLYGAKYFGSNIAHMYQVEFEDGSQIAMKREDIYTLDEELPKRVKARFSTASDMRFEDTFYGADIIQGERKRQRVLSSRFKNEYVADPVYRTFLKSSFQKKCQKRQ

KDM4C = target: T2, KDM4C (Homo sapiens, UniProt Q9H3R0); details: prior reports (Chowdhury et al., 2011; Lu et al., 2012); cited from earlier work
T2 sequence (Q9H3R0 1-1056): T1 sequence (Q9H3R0 1-1056)

SF188 cells = assay: Intracellular 2HG by GC-MS in SF188 cells supplemented with cell-permeable α-KG; type: cell-based, human; details: 48 hr, 5 mM dimethyl-α-KG vs vehicle (DMSO)
Experimental: FIG. 2 depicts quantified results of GC-MS histograms showing that hypoxia-induced L-2HG originates from glutamine-derived α-ketoglutarate. Panels in (A and B) are line-drawings showing the fraction of intracellular 2HG labeled by ^13C at the indicated time. Isotope tracing was performed in SF188 cells cultured in medium containing either [U-^13C]glucose or [U-^13C]glutamine. […] Panels in (C) are bar graphs showing normalized 2HG. SF188 cells were cultured for 48 hr in 21% or 0.5% O2 in the presence of vehicle (DMSO) or 5 mM dimethyl-α-KG. Total intracellular 2HG was assessed by GC-MS. […] Representative data from 1 of 3 independent experiments are shown. Panels in (D and E) are GC-MS histograms showing 2HG ions in different conditions. SF188 cells were cultured as in (C), then chiral derivatization of metabolites was performed to allow separation of 2HG enantiomers by GC-MS. Panels in (D) show an overlay of GC-MS histograms for 2HG on the same scale. […]
Metabolites were extracted with 1 mL ice-cold 80% methanol supplemented with 2 micromolar deuterated 2-hydroxyglutarate (D-2-hydroxyglutaric-2,3,3,4,4-d5 acid; deuterated-D-2HG) as an internal standard. […] Samples were analyzed using an Agilent 7890A GC coupled to Agilent 5975C mass selective detector. […] Ions used for quantification of metabolite levels were 2HG m/z 247 and deuterated-2HG m/z 252. […]

O=C(O)CC[C@H](O)C(=O)O [L-2HG, L-2-hydroxyglutarate]
inhibition of KDM4C demethylation of H3K9me3 (purified human KDM4C): sensitive to inhibition by L-2HG, in a dose dependent manner
inhibition of KDM4C (KDM4C): roughly comparable inhibition

D-2-hydroxyglutarate [D-2HG]
inhibition of KDM4C (KDM4C): roughly comparable inhibition

COC(=O)CCC(=O)C(=O)OC [dimethyl-α-KG, dimethyl alpha-ketoglutarate]
increase in intracellular 2HG (SF188 cells; hypoxia (0.5% O2), confirmed to be L-2HG by chiral derivatization): ~100 fold
increase in intracellular 2HG (SF188 cells; normoxia (21% O2)): modest increase
